From US20080194585A1, “Fungicidal Pyrazine Derivatives” (priority 2005, published 2008)
Marks after values point to notes of the source that are not given here.

Legend:
Conditions in all cases: 100 = 100% disease control, 0 = no control
Phytophthora infestans = experiment: whole plant or invertebrate; format: in vivo
fusarium graminearium = experiment: Test I: wheat head scab, preventive spray on wheat seedlings
Description: (the causal agent of wheat head scab) and incubated in a saturated atmosphere at 20° C. for 72 h, and then moved to a growth chamber at 22° C. for 5 days, after which disease ratings were made.

Sclerotinia sclerotiorum = experiment: Test C: cucumber white mold, preventive spray on cucumber seedlings
[1] = test system: Colletotrichum orbiculare; experiment: Test B: cucumber Colletotrichum anthracnose, preventive spray on cucumber seedlings
Botrytis cinerea = experiment: Test E: tomato botrytis, preventive spray on tomato seedlings
Plasmopara viticola = experiment: Test D: grape downy mildew, spray after inoculation of grape seedlings; format: in vivo
Source text: Upon removal, disease ratings were made. […] A dash (-) indicates no test results.

Septoria nodorum = experiment: Test H: wheat glum blotch, preventive spray on wheat seedlings
Description: (the causal agent of wheat glum blotch) and incubated in a saturated atmosphere at 20° C. for 48 h, and then moved to a growth chamber at 22° C. for 5 days, after which disease ratings were made.

Septoria tritici = experiment: Test J: wheat leaf blotch, preventive spray on wheat seedlings; format: in vivo
Source text: A dash (-) indicates no test results.

[2] = test system: Puccinia recondita f. sp. tritici; experiment: Test K: wheat leaf rust, preventive spray on wheat seedlings
Rhizoctonia oryzae = experiment: Test G: turf brown patch, preventive spray on creeping bent grass seedlings
Description: (the causal agent of turf brown patch) and incubated in a saturated atmosphere at 27° C. for 24 h, and then moved to a growth chamber at 27° C. for 5 days, after which disease ratings were made.

[3] = test system: Erysiphe graminis f. sp. tritici; experiment: Test L: wheat powdery mildew, preventive spray on wheat seedlings
Pythium aphanidermatum = experiment: Test A: bluegrass pythium blight, preventive spray on bluegrass seedlings

Structure (SMILES) | Test F disease control rating (Phytophthora infestans; 40 ppm (marked *)) | Test I disease control rating (fusarium graminearium; 40 ppm (marked *)) | Test C disease control rating (Sclerotinia sclerotiorum; 40 ppm (marked *)) | Test B disease control rating ([1]; 40 ppm (marked *)) | Test E disease control rating (Botrytis cinerea; 40 ppm (marked *)) | Test D disease control rating (Plasmopara viticola; 40 ppm (marked *)) | Test H disease control rating (Septoria nodorum; 40 ppm (marked *)) | Test J disease control rating (Septoria tritici; 40 ppm (marked *)) | Test F disease control rating (Phytophthora infestans; 200 ppm) [%] | Test I disease control rating (fusarium graminearium; 200 ppm) [%] | Test C disease control rating (Sclerotinia sclerotiorum; 200 ppm) [%] | Test B disease control rating ([1]; 200 ppm) [%] | Test E disease control rating (Botrytis cinerea; 200 ppm) [%] | Test D disease control rating (Plasmopara viticola; 200 ppm) [%] | Test H disease control rating (Septoria nodorum; 200 ppm) [%] | Test K disease control rating ([2]; 200 ppm) [%] | Test G disease control rating (Rhizoctonia oryzae; 200 ppm) [%] | Test L disease control rating ([3]; 200 ppm) [%] | Test A disease control rating (Pythium aphanidermatum; 200 ppm) [%] | Test J disease control rating (Septoria tritici; 200 ppm) [%] | other results
CC[C@H](C)Cn1c(-c2ccc(F)cc2Cl)c(Br)nc(N2CCC=N2)c1=O [compound 283] | 47* % | 0* % | 0* % | 94* % | 98* % | 0* % | 0* % | 100* % |  |  |  |  |  |  |  |  |  |  |  |  | Test K disease control rating ([2]; 40 ppm (marked *)): 96* %; Test G disease control rating (Rhizoctonia oryzae; 40 ppm (marked *)): 0* %; Test L disease control rating ([3]; 40 ppm (marked *)): 97* %; Test A disease control rating (Pythium aphanidermatum; 40 ppm (marked *)): 0* %
CCCCn1c(-c2ccc(F)cc2Cl)c(Br)nc(-n2cccn2)c1=O [compound 284] | 16* % | 0* % | 0* % | 0* % | 94* % | 0* % | 99* % | 100* % |  |  |  |  |  |  |  |  |  |  |  |  | Test K disease control rating ([2]; 40 ppm (marked *)): 95* %; Test G disease control rating (Rhizoctonia oryzae; 40 ppm (marked *)): 0* %; Test L disease control rating ([3]; 40 ppm (marked *)): 96* %; Test A disease control rating (Pythium aphanidermatum; 40 ppm (marked *)): 0* %
CCCCn1c(-c2ccc(F)cc2Cl)c(Br)nc(-n2ccc(C)n2)c1=O [compound 285] | 0* % | 0* % | 0* % | 0* % | 99* % | 0* % | 85* % | 100* % |  |  |  |  |  |  |  |  |  |  |  |  | Test K disease control rating ([2]; 40 ppm (marked *)): 89* %; Test G disease control rating (Rhizoctonia oryzae; 40 ppm (marked *)): 0* %; Test L disease control rating ([3]; 40 ppm (marked *)): 92* %; Test A disease control rating (Pythium aphanidermatum; 40 ppm (marked *)): 0* %
O=c1c(-n2cccn2)nc(Cl)c(-c2ccccc2Cl)n1Cc1ccccc1 [compound 288] |  |  |  |  |  |  |  | 100* % | 0 | 0 | 0 | 91 | 100 | 0 | 100 | 91 | 0 | 91 | 0 |  | 
Cc1ccn(-c2nc(Cl)c(C(C)C)n(CC(C)C)c2=O)n1 [compound 289] |  |  |  |  |  |  |  |  | 57 | 0 | 0 | 0 | 100 | 0 | 0 | 100 | 95 | 79 | 0 | 96 | 
CC(C)Cn1c(C2CCCC2)c(Cl)nc(-n2cccn2)c1=O [compound 290] |  |  |  |  |  |  |  |  | 0 | 0 | 0 | 0 | 100 | 0 | 0 | 100 | 77 | 99 | 0 | 100 | 
CC(C)Cn1c(C2CCCCC2)c(Cl)nc(-n2cccn2)c1=O [compound 291] |  |  |  |  |  |  |  |  | 0 | 0 | 0 | 0 | 97 | 33 | 0 | 88 | 0 | 71 | 0 | 100 | 
CC(C)Cc1c(Cl)nc(-n2cccn2)c(=O)n1CC(C)C [compound 292] |  |  |  |  |  |  |  |  | 0 | 0 | 0 | 0 | 0 | 0 | 0 | 27 | 0 | 74 | 0 | 38 | 
